Results taken from patent publication US7462614B2, “Imidazotriazine compounds” (Smithkline Beecham Corporation, priority 2003, dated 2008).

Target: T1, truncated human PLK1 (kinase domain) (Homo sapiens, UniProt P53350)
T1 construct: made in house; host or cells: baculovirus-infected T. ni insect cells
Assay: Assay for Inhibition of PLK1 (33P SPA enzyme activity)
Type: biochemical
Conditions: 1 μM ATP, 2 nM enzyme; read-out: Ave pIC50 PLK Enzyme Inhibition (converted)
Method: I. Assay for Inhibition of PLK1
A. Preparation of 6× N-Terminal His-Tagged PLK Kinase Domain
All procedures are performed at 4° C. Cells are lysed in 25 mM HEPES, 200 mM NaCl, 25 mM imidazole; pH 8.0. The homogenate is centrifuged at 14K rpm in a SLA-1500 rotor for 40 min and the supernatant filtered through a 1.2 micron filter. The supernatant is loaded onto a Nickel chelating Sepharose (Amersham Pharmacia) column and washed with 25 mM HEPES, 500 mM NaCl, 25 mM imidazole; pH 8.0. […] PLK is concentrated using a 10 kDa molecular weight cutoff membrane and then loaded onto a Superdex 75 gel filtration (Amersham BioSciences) column equilibrated in 25 mM HEPES, 1 mM DTT, 500 mM NaCl; pH 8.0. Fractions containing PLK are determined by SDS-PAGE. PLK is pooled, aliquoted and stored at […]. Samples are quality controlled using mass spectrometry.
B. Enzyme Activity±Inhibitors is Determined As Follows:
Compounds are added to the plate (1 μL in 100% DMSO).
Immediately upon addition of enzyme and thorough mixing, add 20 uL per well into 384-well white plates containing compounds and controls. […] The enzymatic reaction is stopped with 50 μl of bead mix (50 mM EDTA, 2 mg/ml Streptavidin-coated SPA beads in Standard Dulbecco's PBS (without Mg^2+and Ca^2+), and 60 μM ATP).

T1 sequence (P53350 21-346): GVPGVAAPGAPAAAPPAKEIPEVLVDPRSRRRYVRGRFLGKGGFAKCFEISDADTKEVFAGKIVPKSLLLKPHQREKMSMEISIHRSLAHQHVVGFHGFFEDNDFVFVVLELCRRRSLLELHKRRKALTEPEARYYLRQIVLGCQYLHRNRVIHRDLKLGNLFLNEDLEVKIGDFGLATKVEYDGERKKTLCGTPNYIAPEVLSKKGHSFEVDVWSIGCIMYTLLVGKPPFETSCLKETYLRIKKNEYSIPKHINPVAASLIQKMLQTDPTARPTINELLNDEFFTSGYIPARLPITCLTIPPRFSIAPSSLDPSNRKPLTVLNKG

First: COc1cc(Nc2ncc3c(C)nc(-c4ccccc4Nc4cccc(C(F)(F)F)c4)n3n2)cc(OC)c1OC [Example 39, 5-Methyl-7-(2-{[3-(trifluoromethyl)phenyl]amino}phenyl)-N-(3,4,5-trimethoxyphenyl)imidazo[5,1-f][1,2,4]triazin-2-amine]
Second: COc1cc(Nc2ncc3c(C)nc(-c4ccccc4Br)n3n2)cc(OC)c1OC [Example 3]
The IC50 of the first is higher: greater than 10 µM for the first, 0.1 to 10 µM for the second.

First: COc1ccc(CCN)cc1Nc1ncc2c(C)nc(-c3cccc(C(F)(F)F)c3)n2n1 [Example 53, N-[5-(2-Aminoethyl)-2-methoxyphenyl]-5-methyl-7-[3-(trifluoromethyl)phenyl]imidazo[5,1-f][1,2,4]triazin-2-amine]
Second: CCOC(=O)c1cncc(Nc2ncc3c(C)nc(-c4cccc(C(F)(F)F)c4)n3n2)c1 [Example 56, Ethyl 5-({5-methyl-7-[3-(trifluoromethyl)phenyl]imidazo[5,1-f][1,2,4]triazin-2-yl}amino)nicotinate]
The IC50 of the first is lower: less than 0.1 µM for the first, 0.1 to 10 µM for the second.

`COc1ccc(Nc2ncc3c(C)nc(-c4ccc(OC)cc4)n3n2)cc1` [Example 87, 5-Methyl-N,7-bis[4-(methyloxy)phenyl]imidazo[5,1-f][1,2,4]triazin-2-amine] and `COc1ccc(Nc2ncc3c(C)nc(-c4cccc(OC)c4)n3n2)cc1` [Example 74, 5-Methyl-7-[3-(methyloxy)phenyl]-N-[4-(methyloxy)phenyl]-imidazo[5,1-f][1,2,4]triazin-2-amine] fall in the same range of IC50: 0.1 to 10 µM for the first, 0.1 to 10 µM for the second.

First: CCS(=O)(=O)c1ccc(OC)c(Nc2cccc(-c3nc(C)c4cnc(Nc5cc(OC)c(OC)c(OC)c5)nn34)c2)c1 [Example 63, 7-(3-{[5-(Ethylsulfonyl)-2-methoxyphenyl]amino}phenyl)-5-methyl-N-(3,4,5-trimethoxyphenyl)imidazo[5,1-f][1,2,4]triazin-2-amine]
Second: COc1cc(Nc2ncc3c(C)nc(-c4cccc(-c5cccc(C(=O)O)c5)c4)n3n2)cc(OC)c1OC [Example 59, 3′-{5-Methyl-2-[(3,4,5-trimethoxyphenyl)amino]imidazo[5,1-f][1,2,4]triazin-7-yl}-1,1′-biphenyl-3-carboxylic acid]
The IC50 of the first is higher: greater than 10 µM for the first, 0.1 to 10 µM for the second.

`COc1ccc(Nc2ncc3c(C)nc(-c4ccco4)n3n2)cc1` [Example 81, 7-(2-Furanyl)-5-methyl-N-[4-(methyloxy)phenyl]imidazo-[5,1-f][1,2,4]triazin-2-amine] and `COc1ccc(Nc2ncc3c(C)nc(-c4cccs4)n3n2)cc1` [Example 83, 5-Methyl-N-[4-(methyloxy)phenyl]-7-(2-thienyl)imidazo[5,1-f][1,2,4]triazin-2-amine] fall in the same range of IC50: 0.1 to 10 µM for the first, 0.1 to 10 µM for the second.

`Cc1nc(-c2cccc(Br)c2)n2nc(Nc3ccc(N4CCOCC4)c(Cl)c3)ncc12` [Example 15, 7-(3-Bromophenyl)-N-(3-chloro-4-morpholin-4-ylphenyl)-5-methylimidazo[5,1-f][1,2,4]triazin-2-amine] and `COc1cc(Nc2ncc3c(C)nc(-c4cccc(Nc5ccc(N6CCOCC6)c(Cl)c5)c4)n3n2)cc(OC)c1OC` [Example 66, 7-{3-[(3-Chloro-4-morpholin-4-ylphenyl)amino]phenyl}-5-methyl-N-(3,4,5-trimethoxyphenyl)imidazo[5,1-f][1,2,4]triazin-2-amine] fall in the same range of IC50: 0.1 to 10 µM for the first, 0.1 to 10 µM for the second.

First: COC(=O)c1ccc(-c2nc(C)c3cnc(Nc4cc(OC)c(OC)c(OC)c4)nn23)cc1 [Example 29, Methyl 4-{5-methyl-2-[(3,4,5-trimethoxyphenyl)amino]imidazo-[5,1-f][1,2,4]triazin-7-yl}benzoate]
Second: COc1cc(Nc2ncc3c(C)nc(-c4ccc(F)cc4)n3n2)cc(OC)c1OC [Example 4, 7-(4-Fluorophenyl)-5-methyl-N-(3,4,5-trimethoxyphenyl)imidazo-[5,1-f][1,2,4]triazin-2-amine]
The IC50 of the first is higher: 0.1 to 10 µM for the first, less than 0.1 µM for the second.

Compared with `COc1cc(Nc2ncc3c(C)nc(-c4ccc5[nH]ccc5c4)n3n2)cc(OC)c1OC` [Example 37, 7-(1H-Indol-5-yl)-5-methyl-N-(3,4,5-trimethoxyphenyl)imidazo-[5,1-f][1,2,4]triazin-2-amine], `COc1cc(Nc2ncc3c(C)nc(-c4cccc(N)c4)n3n2)cc(OC)c1OC` [Example 31, 7-(3-Aminophenyl)-5-methyl-N-(3,4,5-trimethoxyphenyl)imidazo-[5,1-f][1,2,4]triazin-2-amine] is lower in IC50: 0.1 to 10 µM for the first, less than 0.1 µM for the second.

`COc1cc(Nc2ncc3c(C)nc(-c4ccc(Br)s4)n3n2)cc(OC)c1OC` [Example 13, 7-(5-Bromothien-2-yl)-5-methyl-N-(3,4,5-trimethoxyphenyl)imidazo-[5,1-f][1,2,4]triazin-2-amine] and `COc1cc(Nc2ncc3c(C)nc(-c4sccc4Br)n3n2)cc(OC)c1OC` [Example 10, 7-(3-Bromothien-2-yl)-5-methyl-N-(3,4,5-trimethoxyphenyl)-imidazo[1,5-f][1,2,4]triazin-2-amine] fall in the same range of IC50: 0.1 to 10 µM for the first, 0.1 to 10 µM for the second.

`COc1ccc(Nc2ncc3c(C)nc(-c4ccccc4OC)n3n2)cc1` [Example 73, 5-Methyl-7-[2-(methyloxy)phenyl]-N-[4-(methyloxy)phenyl]-imidazo[5,1-f][1,2,4]triazin-2-amine] and `COc1ccc(Nc2ncc3c(C)nc(-c4cn(C)c5ccccc45)n3n2)cc1` [Example 76, 5-Methyl-7-(1-methyl-1H-indol-3-yl)-N-[4-(methyloxy)phenyl]imidazo[5,1-f][1,2,4]triazin-2-amine] fall in the same range of IC50: 0.1 to 10 µM for the first, 0.1 to 10 µM for the second.

First: COc1cc(Nc2ncc3c(C)nc(-c4cccc(/C=C/C(N)=O)c4)n3n2)cc(OC)c1OC [Example 17, (2E)-3-(3-{5-Methyl-2-[(3,4,5-trimethoxyphenyl)amino]imidazo[5,1-f][1 2,4]triazin-7-yl}phenyl)prop-2-enamide]
Second: COc1cc(Nc2ncc3c(C)nc(-c4ccoc4)n3n2)cc(OC)c1OC [Example 36, 7-(3-Furyl)-5-methyl-N-(3,4,5-trimethoxyphenyl)imidazo[5,1-f][1,2,4]triazin-2-amine]
The IC50 of the first is lower: less than 0.1 µM for the first, 0.1 to 10 µM for the second.

`COc1ccc(Nc2ncc3c(C)nc(-c4cc5ccccc5n4C)n3n2)cc1` [Example 78, 5-Methyl-7-(1-methyl-1H-indol-2-yl)-N-[4-(methyloxy)phenyl]imidazo[5,1-f][1,2,4]triazin-2-amine] and `COc1ccc(Nc2ncc3c(C)nc(C(C)c4ccccc4)n3n2)cc1` (stereo not shown) [Example 77, 5-Methyl-N-[4-(methyloxy)phenyl]-7-(1-phenylethyl)imidazo[5,1-f][1,2,4]triazin-2-amine] cannot be ordered by IC50: greater than 10 µM for the first, greater than 10 µM for the second.

`COc1ccc(Nc2ncc3c(C)nc(C4CCOCC4)n3n2)cc1` [Example 72, 5-Methyl-N-[4-(methyloxy)phenyl]-7-(tetrahydro-2H-pyran-4-yl)imidazo[5,1-f][1,2,4]triazin-2-amine] and `COc1ccc(Nc2ncc3c(C)nc(-c4ccsc4)n3n2)cc1` [Example 79, 5-Methyl-N-[4-(methyloxy)phenyl]-7-(3-thienyl)imidazo[5,1-f][1,2,4]triazin-2-amine] fall in the same range of IC50: 0.1 to 10 µM for the first, 0.1 to 10 µM for the second.

`COc1ccc(Nc2ncc3c(C)nc(-c4sccc4Br)n3n2)cc1` [Example 71, 7-(3-Bromo-2-thienyl)-5-methyl-N-[4-(methyloxy)phenyl]imidazo[5,1-f][1,2,4]triazin-2-amine] and `Cc1nc(-c2ccccc2)n2nc(Nc3ccc([N+](=O)[O-])cc3)ncc12` [Example 18, 5-Methyl-N-(4-nitrophenyl)-7-phenylimidazo[5,1-f][1,2,4]triazin-2-amine] fall in the same range of IC50: 0.1 to 10 µM for the first, 0.1 to 10 µM for the second.

`COc1cc(Nc2ncc3c(C)nc(-c4ccccc4NC(=O)C(C)(C)C)n3n2)cc(OC)c1OC` [Example 6, 2,2-Dimethyl-N-(2-{5-methyl-2-[(3,4,5-trimethoxyphenyl)amino]-imidazo[5,1-f][1,2,4]triazin-7-yl}phenyl)propanamide] and `COc1cc(Nc2ncc3c(C)nc(-c4cccc5cccnc45)n3n2)cc(OC)c1OC` [Example 40, 5-Methyl-7-quinolin-8-yl-N-(3,4 5-trimethoxyphenyl)imidazo[5,1-f][1,2,4]triazin-2-amine] cannot be ordered by IC50: greater than 10 µM for the first, greater than 10 µM for the second.

`COc1cc(Nc2ncc3c(C)nc(-c4cccc(Nc5ccc(Cn6cncn6)cc5)c4)n3n2)cc(OC)c1OC` [Example 64, 5-Methyl-7-(3-{[4-(1H-1,2,4-triazol-1-ylmethyl)phenyl]amino}-phenyl)-N-(3,4,5-trimethoxyphenyl)imidazo[5,1-f][1,2,4]triazin-2-amine] and `COc1cc(Nc2ncc3c(C)nc(-c4cccc(-c5ccc(CC(N)C(=O)O)cc5)c4)n3n2)cc(OC)c1OC` (stereo not shown) [Example 60, 2-Amino-3-(3′-{5-methyl-2-[(3,4,5-trimethoxyphenyl)amino]imidazo-[5,1-f][1,2,4]triazin-7-yl}-1,1′-biphenyl-4-yl)propanoic acid] fall in the same range of IC50: 0.1 to 10 µM for the first, 0.1 to 10 µM for the second.

`COc1cc(Nc2ncc3c(C)nc(-c4ccccc4)n3n2)cc(OC)c1` [Example 93, N-[3,5-Bis(methyloxy)phenyl]-5-methyl-7-phenylimidazo[5,1-f][1,2,4]triazin-2-amine] and `Cc1nc(-c2ccccc2)n2nc(Nc3cccc(C(F)(F)F)c3)ncc12` [Example 26, 5-Methyl-7-phenyl-N-[3-(trifluoromethyl)phenyl]imidazo[5,1-f][1,2,4]triazin-2-amine] fall in the same range of IC50: 0.1 to 10 µM for the first, 0.1 to 10 µM for the second.
